The test system of series [1] is Puccinia recondite f. Sp. Tritici. Nature of the series: Fungicidal activity against Puccinia recondite f. sp. tritici / wheat / leaf disc curative (brown rust). The settings on record: foliar, 200 ppm in the applied formulation, wheat leaf segments cv. Kanzler, applied 1 day after inoculation, assessed 6 to 8 days after application, read-out: disease control compared to untreated control leaf disks. It is filed as in vivo. In outline:
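Curative leaf-segment test, cv. Kanzler: spore inoculation, dark storage 19° C/75% RH, compound spray 1 day post-inoculation. Then 12 h light/12 h dark, 19° C, 75% RH. Read-out: % disease control vs untreated check, 6–8 d after application.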

In series [2] the test system is Puccinia recondita f. Sp. Tritici. Nature of the series: Fungicidal activity against Puccinia recondita f. sp. tritici / wheat / leaf disc preventative (brown rust). It is filed as in vivo. The settings on record: foliar, 200 ppm in the applied formulation, wheat leaf segments cv. Kanzler, inoculated 1 day after application, assessed 7 to 9 days after application, read-out: disease control compared to untreated control leaf disks. The method, boiled down: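 Sprayed at 200 ppm one day ahead of spore inoculation, wheat leaf segments of cultivar Kanzler sat on agar under 19° C., 75% relative humidity and alternating 12-hour light and dark. Efficacy was taken as percent disease control relative to untreated segments after 7 to 9 days.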

The subject of series [3] is Glomerella lagenarium (Colletotrichum lagenarium). Briefly: Fungicidal activity against Glomerella lagenarium (Colletotrichum lagenarium) liquid culture / cucumber / preventative (anthracnose). It is filed as cell-based. Particulars: Colletotrichum orbiculare; 20 ppm in the applied formulation; liquid culture in PDB, 24° C.; 3 to 4 days after application; read-out: disease control compared to untreated control (inhibition of growth measured photometrically). In outline:
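PDB broth seeded with cryo-stored conidia, added onto compound (DMSO solution) in 96-well plates; 24° C.; photometric growth read at 3–4 d post-application; % inhibition vs untreated check.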

Another series deals with Phakopsora pachyrhizi. Nature of the series: Fungicidal activity against Phakopsora pachyrhizi / soybean / leaf disc preventative (Asian soybean rust). In kind it is in vivo. The settings on record: foliar, 200 ppm in the applied formulation, soybean leaf disks, inoculated one day after application, assessed 12 to 14 days after application, read-out: disease control compared to untreated control leaf disks. On the procedure:
Leaf disks or leaf segments of various plant species are cut from plants grown in a greenhouse. The cut leaf disks or segments are placed in multiwell plates (24-well format) onto water agar. The leaf disks are sprayed with a test solution before (preventative) or after (curative) inoculation. Compounds to be tested are prepared as DMSO solutions (max. 10 mg/ml) which are diluted to the appropriate concentration with 0.025% Tween20 just before spraying. The inoculated leaf disks or segments are incubated under defined conditions (temperature, relative humidity, light, etc.) according to the respective test system. A single evaluation of disease level is carried out 3 to 14 days after inoculation, depending on the pathosystem. Percent disease control relative to the untreated check leaf disks or segments is then calculated.
Soybean leaf disks are placed on water agar in multiwell plates (24-well format) and sprayed with the formulated test compound diluted in water. One day after application leaf discs are inoculated by spraying a spore suspension on the lower leaf surface. After an incubation period in a climate cabinet of 24-36 hours in darkness at 20° C. and 75% rh leaf disc are kept at 20° C. with 12 h light/day and 75% rh. The activity of a compound is assessed as percent disease control compared to untreated when an appropriate level of disease damage appears in untreated check leaf disks (12 to 14 days after application).
The following compounds at 200 ppm in the applied formulation give at least 80% disease control in this test when compared to untreated control leaf disks under the same conditions, which show extensive disease development.

SMILES strings stand for the structures.

In the case of `O=C(NCC1CC1)C(=O)c1ccc(-c2noc(C(F)(F)F)n2)cc1` [Compound 1.43, N-(cyclopropyl-methyl)-2-oxo-2-[4-[5-(trifluoromethyl)-1,2,4-oxadiazol-3-yl]phenyl]acetamide], the melting point lay within 86 to 95 °C. Besides, the pest or weed control at 200 ppm in series [1] is not below 80%. Also, the pest or weed control at 200 ppm in series [2] is not below 80%. In addition, in series [3], the inhibition at 20 ppm is not below 80%. Further, the pest or weed control at 200 ppm in the series on Phakopsora pachyrhizi was not below 80%.

These data come from US10653146B2, “Microbiocidal oxadiazole derivatives” (SYNGENTA PARTICIPATIONS AG, priority 2016, dated 2020).
